{
  "source": "BindingDB's records for doi:10.1021/jm00006a007",
  "about": "(Parke-Davis Pharmaceutical Research, 1995)",
  "molecular_target": "T1, Dimer of Gag-Pol polyprotein [489-587] (Human immunodeficiency virus 1, UniProt P12497)",
  "T1 construct": "489-587",
  "test": "Protease Inhibition Assay",
  "details": "pH 4.7; 37 °C",
  "experimental": "For determination of IC50 values, HIV-1 protease was added to assay buffer containing inhibitor and the substrate (H-His-Lys-Ala-Arg-Val-Leu- (p-NO2) Phe-Glu-Ala-norleucine-Ser-NH2). The Leu- (p-NO2) Phe bond of the substrate was cleaved by the enzyme, and the substrate and products were separated by reversed-phase HPLC. Absorbance was measured at 220 nm, peak areas were determined, and percentage conversion to product was calculated.",
  "data": [
    {"smiles": "O=c1oc(-c2ccccc2)cc(O)c1C(CC1CC1)SCc1ccccc1", "note": "(racemic) [3-[1-(benzylsulfanyl)-2-cyclopropylethyl]-4-hydroxy-6-phenyl-2H-pyran-2-one]", "values": [
      {"measurement": "IC50", "value": 84, "unit": "nM"}
    ]},
    {"smiles": "O=c1oc(-c2ccccc2)cc(O)c1C(CC1CCCC1)SC1CCCCC1", "note": "(racemic) [3-[1-(cyclohexylsulfanyl)-2-cyclopentylethyl]-4-hydroxy-6-phenyl-2H-pyran-2-one]", "values": [
      {"measurement": "IC50", "value": 541, "unit": "nM"}
    ]},
    {"smiles": "O=c1oc(-c2ccccc2)cc(O)c1C(CC1CC1)SC1CCCCC1", "note": "(racemic) [3-[1-(cyclohexylsulfanyl)-2-cyclopropylethyl]-4-hydroxy-6-phenyl-2H-pyran-2-one]", "values": [
      {"measurement": "IC50", "value": 147, "unit": "nM"}
    ]},
    {"smiles": "O=c1oc(-c2ccccc2)cc(O)c1C(CC1CC1)SC1CCCC1", "note": "(racemic) [3-[1-(cyclopentylsulfanyl)-2-cyclopropylethyl]-4-hydroxy-6-phenyl-2H-pyran-2-one]", "values": [
      {"measurement": "IC50", "value": 69, "unit": "nM"}
    ]},
    {"smiles": "O=c1oc(-c2ccccc2)cc(O)c1C(SCc1ccccc1)c1ccccc1", "note": "(racemic) [3-[(benzylsulfanyl)(phenyl)methyl]-4-hydroxy-6-phenyl-2H-pyran-2-one]", "values": [
      {"measurement": "IC50", "value": 480, "unit": "nM"}
    ]},
    {"smiles": "O=c1oc(-c2ccccc2)cc(O)c1C(SC1CCCC1)C1CCCC1", "note": "(racemic) [3-[cyclopentyl(cyclopentylsulfanyl)methyl]-4-hydroxy-6-phenyl-2H-pyran-2-one]", "values": [
      {"measurement": "IC50", "value": 225, "unit": "nM"}
    ]},
    {"smiles": "O=c1oc(-c2ccccc2)cc(O)c1C(Sc1ccc2ccccc2c1)c1ccccc1", "note": "(racemic) [4-hydroxy-3-[(naphthalen-2-ylsulfanyl)(phenyl)methyl]-6-phenyl-2H-pyran-2-one]", "values": [
      {"measurement": "IC50", "value": 2450, "unit": "nM"}
    ]},
    {"smiles": "O=c1oc(-c2ccccc2)cc(O)c1C(Sc1ccccc1)c1ccc2ccccc2c1", "note": "(racemic) [4-hydroxy-3-[naphthalen-2-yl(phenylsulfanyl)methyl]-6-phenyl-2H-pyran-2-one]", "values": [
      {"measurement": "IC50", "value": 7820, "unit": "nM"}
    ]},
    {"smiles": "CC(C)CC(SC1CCCC1)c1c(O)cc(-c2ccccc2)oc1=O", "note": "(racemic) [(+/-)-3-[1-(Cyclopentylthio)-3-methylbutyl]-4-hydroxy-6-phenyl-2H-pyran-2-one]", "values": [
      {"measurement": "Ki", "value": 33, "unit": "nM"}
    ]},
    {"smiles": "O=c1oc(-c2ccccc2)cc(O)c1C(Sc1ccccc1)C1CCCCC1", "note": "(racemic) [(+/-)-3-[Cyclohexyl(phenylthio)methyl]-4-hydroxy-phenyl-2H-pyran-2-one]", "values": [
      {"measurement": "IC50", "value": 2440, "unit": "nM"}
    ]},
    {"smiles": "O=c1oc(-c2ccccc2)cc(O)c1C(Sc1ccccc1)c1ccccc1", "note": "(racemic) [(+/-)-4-Hydroxy.6-phenyl-3-[phenyl(phenylthio)methyl]-2H-pyran-2-one]", "values": [
      {"measurement": "IC50", "value": 780, "unit": "nM"}
    ]},
    {"smiles": "O=c1oc(-c2ccccc2)cc(O)c1C(SC1CCCCC1)c1ccccc1", "note": "(stereo not drawn) [3-[(cyclohexylsulfanyl)(phenyl)methyl]-4-hydroxy-6-phenyl-2H-pyran-2-one]", "values": [
      {"measurement": "IC50", "value": 480, "unit": "nM"}
    ]},
    {"smiles": "O=c1oc(-c2ccccc2)cc(O)c1CSc1ccccc1", "note": "[4-hydroxy-6-phenyl-3-[(phenylsulfanyl)methyl]-2H-pyran-2-one]", "values": [
      {"measurement": "IC50", "value": 84300, "unit": "nM"}
    ]}
  ]
}
